The results in this text go back to patent US20220372040A1, “METTL3 MODULATORS” (Accent Therapeutics, Inc., priority 2020, published 2022).

Each structure is given as a SMILES string. Where only a bound is given, the exact number is not on record here.

Holding throughout (type): biochemical
One assay addresses METTL3/METTL14 (Homo sapiens, UniProt Q86U44). As to the kind of experiment: METTL3-14 standard enzyme assay (3H-SAM flashplate scintillation). The settings on record: METTL3/METTL14 2.5 nM, RNA 100 nM, 3H-SAM 100 nM, 30 min. In short, it runs like this: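 METTL3/METTL14 (2.5 nM final) preincubated 5 min with compound in 20 mM HEPES pH 7.5, 50 mM KCl, 250 μM MgCl2, 1 mM DTT, ambient temperature; started with 100 nM 3′-biotinylated RNA (UCUGGACUAAA) and 100 nM 3H-SAM. After 30 min, quenched with 15 μM cold SAM; methylated RNA captured on streptavidin flashplates and counted by scintillation.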

In another assay the target is PRMT5-MEP50 (Homo sapiens, UniProt O14744). Put plainly: PRMT5 assay (3H-SAM flashplate scintillation). The settings on record: PRMT5-MEP50 2.5 nM, histone H4 peptide 100 nM, 3H-SAM 250 nM, 60 min. Put shortly: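 PRMT5-MEP50 (2.5 nM final) preincubated 5 min with compound, then reacted 60 min at ambient temperature with 100 nM biotinylated N-acetyl histone H4 peptide and 250 nM 3H-SAM in 20 mM Tris-HCl pH 8.0, 1 mM DTT, 0.01% Tween. Quenched with 15 μM cold SAM; methylated peptide captured on streptavidin flashplates, scintillation counted.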

In another assay the target is METTL1/WDR4 (Homo sapiens, UniProt Q9UBP6). Put plainly: METTL1 assay (3H-SAM flashplate scintillation). The settings on record: METTL1/WDR4 6.25 nM, RNA 25 nM, 3H-SAM 60 nM, 20 min; read-out: METTL1 IC50. In short, it runs like this: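 Radiometric methyltransfer by METTL1/WDR4 (6.25 nM f.c., 5 min preincubation) at ambient temperature in HEPES pH 7.5, KCl, MgCl2, DTT; started with 25 nM 3′-biotinylated RNA and 60 nM 3H-SAM, run 20 min, quenched with 15 μM cold SAM. Product captured on streptavidin flashplates (2 h, 25° C), counted by scintillation.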

Another assay deals with T1, METTL16 (Homo sapiens, UniProt Q86W50).
T1 sequence (Q86W50 1-562): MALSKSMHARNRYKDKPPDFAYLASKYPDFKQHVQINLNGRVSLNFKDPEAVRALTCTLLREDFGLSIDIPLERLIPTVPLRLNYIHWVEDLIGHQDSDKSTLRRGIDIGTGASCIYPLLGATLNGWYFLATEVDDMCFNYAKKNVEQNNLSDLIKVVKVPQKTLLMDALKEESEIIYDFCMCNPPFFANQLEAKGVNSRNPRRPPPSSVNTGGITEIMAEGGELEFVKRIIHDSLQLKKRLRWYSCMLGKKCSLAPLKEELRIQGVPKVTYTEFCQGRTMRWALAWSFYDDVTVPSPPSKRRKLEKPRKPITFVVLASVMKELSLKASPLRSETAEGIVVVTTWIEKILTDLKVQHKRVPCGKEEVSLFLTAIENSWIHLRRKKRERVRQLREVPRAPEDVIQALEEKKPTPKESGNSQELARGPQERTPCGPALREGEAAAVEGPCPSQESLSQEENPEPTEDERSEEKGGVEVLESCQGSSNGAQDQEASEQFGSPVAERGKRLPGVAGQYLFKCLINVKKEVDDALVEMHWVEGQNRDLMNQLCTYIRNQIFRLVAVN
As to the kind of experiment: METTL16 assay (3H-SAM flashplate scintillation). The following applies: METTL16 100 nM, RNA 50 nM, 3H-SAM 200 nM, SAM 800 nM, 20 min. Put shortly:
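Radiometric methyltransferase reaction at ambient temperature in 20 mM HEPES pH 7.5, 50 mM KCl, 1 mM DTT, with 100 nM enzyme preincubated 5 min with compound. It was started with 50 nM 3′-biotinylated RNA, 200 nM 3H-SAM plus 800 nM cold SAM, run 20 min, then quenched with excess cold SAM. Product was captured on streptavidin flashplates and scintillation-counted.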

METTL1/WDR4, sequence (Q9UBP6 whole entry, species assumed): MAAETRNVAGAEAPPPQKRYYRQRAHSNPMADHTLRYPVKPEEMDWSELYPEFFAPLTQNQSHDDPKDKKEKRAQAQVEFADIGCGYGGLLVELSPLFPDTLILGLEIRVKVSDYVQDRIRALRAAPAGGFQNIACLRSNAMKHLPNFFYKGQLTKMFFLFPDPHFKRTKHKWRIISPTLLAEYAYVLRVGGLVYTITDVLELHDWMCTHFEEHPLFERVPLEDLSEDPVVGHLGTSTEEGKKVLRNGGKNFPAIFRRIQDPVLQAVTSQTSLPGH
METTL1/WDR4, sequence (P57081 whole entry partner, species assumed): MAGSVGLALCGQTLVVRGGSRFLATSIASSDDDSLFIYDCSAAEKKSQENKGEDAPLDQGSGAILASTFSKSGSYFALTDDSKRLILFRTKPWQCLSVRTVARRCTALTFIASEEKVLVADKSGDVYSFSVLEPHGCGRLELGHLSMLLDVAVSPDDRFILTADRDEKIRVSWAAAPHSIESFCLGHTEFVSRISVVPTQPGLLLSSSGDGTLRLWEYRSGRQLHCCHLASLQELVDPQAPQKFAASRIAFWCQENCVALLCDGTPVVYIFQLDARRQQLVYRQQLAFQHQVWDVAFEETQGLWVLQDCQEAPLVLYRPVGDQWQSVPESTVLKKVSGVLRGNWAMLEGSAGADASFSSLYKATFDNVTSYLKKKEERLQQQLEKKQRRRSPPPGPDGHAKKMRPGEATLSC
METTL3/METTL14, sequence (Q86U44 whole entry, species assumed): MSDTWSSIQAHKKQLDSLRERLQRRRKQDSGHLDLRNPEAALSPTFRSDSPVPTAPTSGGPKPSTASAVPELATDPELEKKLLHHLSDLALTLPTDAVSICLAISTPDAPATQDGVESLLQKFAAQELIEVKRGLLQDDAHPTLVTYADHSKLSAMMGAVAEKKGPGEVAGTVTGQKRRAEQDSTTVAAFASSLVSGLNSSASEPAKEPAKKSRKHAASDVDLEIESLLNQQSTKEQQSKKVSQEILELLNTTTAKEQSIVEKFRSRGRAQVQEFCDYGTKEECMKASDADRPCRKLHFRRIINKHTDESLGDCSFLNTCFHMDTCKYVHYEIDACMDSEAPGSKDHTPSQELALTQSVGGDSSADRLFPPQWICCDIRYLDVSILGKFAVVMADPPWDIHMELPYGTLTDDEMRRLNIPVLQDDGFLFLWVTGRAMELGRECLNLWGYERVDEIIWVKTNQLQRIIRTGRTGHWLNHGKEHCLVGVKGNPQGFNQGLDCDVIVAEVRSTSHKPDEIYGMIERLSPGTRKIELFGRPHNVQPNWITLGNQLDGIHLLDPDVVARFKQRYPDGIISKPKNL
METTL3/METTL14, sequence (Q9HCE5 whole entry partner, species assumed): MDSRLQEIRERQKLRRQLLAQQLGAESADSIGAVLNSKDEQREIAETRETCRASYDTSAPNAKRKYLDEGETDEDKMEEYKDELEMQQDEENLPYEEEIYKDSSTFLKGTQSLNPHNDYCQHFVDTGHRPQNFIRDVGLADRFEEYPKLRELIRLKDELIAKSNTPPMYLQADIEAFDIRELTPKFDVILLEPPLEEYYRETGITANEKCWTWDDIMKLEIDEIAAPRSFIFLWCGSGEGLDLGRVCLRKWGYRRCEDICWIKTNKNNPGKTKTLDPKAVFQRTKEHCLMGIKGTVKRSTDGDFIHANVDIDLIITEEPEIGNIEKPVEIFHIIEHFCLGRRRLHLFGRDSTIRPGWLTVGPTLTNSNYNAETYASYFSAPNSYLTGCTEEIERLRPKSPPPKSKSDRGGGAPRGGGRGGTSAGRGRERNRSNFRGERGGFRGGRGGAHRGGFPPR
PRMT5-MEP50, sequence (O14744 whole entry): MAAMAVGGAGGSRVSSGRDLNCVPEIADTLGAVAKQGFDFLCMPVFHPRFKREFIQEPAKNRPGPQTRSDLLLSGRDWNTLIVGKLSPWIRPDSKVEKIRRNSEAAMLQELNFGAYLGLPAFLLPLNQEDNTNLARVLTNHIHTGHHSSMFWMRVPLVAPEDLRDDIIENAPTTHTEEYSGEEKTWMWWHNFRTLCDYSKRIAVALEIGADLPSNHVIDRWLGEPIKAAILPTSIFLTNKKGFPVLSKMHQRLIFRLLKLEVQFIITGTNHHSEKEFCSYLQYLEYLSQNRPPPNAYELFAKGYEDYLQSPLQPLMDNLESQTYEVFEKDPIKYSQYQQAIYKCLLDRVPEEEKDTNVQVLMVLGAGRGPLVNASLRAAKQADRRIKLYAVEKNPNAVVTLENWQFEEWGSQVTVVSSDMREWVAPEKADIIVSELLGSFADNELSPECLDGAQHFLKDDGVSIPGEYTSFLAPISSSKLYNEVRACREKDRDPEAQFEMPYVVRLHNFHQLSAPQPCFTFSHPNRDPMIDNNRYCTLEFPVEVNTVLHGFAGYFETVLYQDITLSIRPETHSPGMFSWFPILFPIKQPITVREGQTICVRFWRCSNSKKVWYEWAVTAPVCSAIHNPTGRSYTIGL
PRMT5-MEP50, sequence (Q9BQA1 whole entry partner): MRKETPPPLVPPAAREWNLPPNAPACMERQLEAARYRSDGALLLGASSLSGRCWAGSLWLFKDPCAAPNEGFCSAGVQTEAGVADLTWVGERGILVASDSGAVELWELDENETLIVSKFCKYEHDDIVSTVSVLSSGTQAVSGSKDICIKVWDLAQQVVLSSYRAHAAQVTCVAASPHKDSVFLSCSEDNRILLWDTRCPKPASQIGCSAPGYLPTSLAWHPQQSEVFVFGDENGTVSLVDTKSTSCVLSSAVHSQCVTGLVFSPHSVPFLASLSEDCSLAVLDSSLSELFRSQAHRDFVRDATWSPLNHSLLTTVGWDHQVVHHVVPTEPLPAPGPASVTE

On to `CNc1ccc2ccc(OCc3cncc(-n4cc(-c5ncco5)c5c(N)ncnc54)c3)cc2n1` [Compound I-235], for which the IC50 against METTL3/METTL14 is under 10 nM; at PRMT5-MEP50, over 1000 nM; on METTL1/WDR4 it was over 1000 nM; at METTL16 it was over 1000 nM.

By IC50 is commonly meant the concentration that gives 50% inhibition.
